Experimental data from patent US4401604A, “Process for preparing thiosulfenamide derivatives of N-phosphonomethylglycine triesters” (Monsanto Company, priority 1981, dated 1983).

How the values were obtained:
Format in all cases: in vivo
Wild Buckwheat = test: Post-emergence herbicidal activity, greenhouse; settings: Table II
Outline: (§1)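 Read-out: visual injury index vs untreated controls, ~2 and ~4 WAT (2-wk reading sometimes omitted). Foliar atomizer spray at ~1.46 kg/cm^2 onto 2–3-wk-old greenhouse plants; test compound diluted from 1.0% w/w stock, ~0.4% w/w emulsifier in spray.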

Barnyardgrass [1] = test: Post-emergence herbicidal activity, greenhouse
Outline: as §1

Velvetleaf [2] = test: Post-emergence herbicidal activity, greenhouse
Outline: as §1

Hemp Sesbania = test: Post-emergence herbicidal activity, greenhouse; settings: Table II
Outline: as §1

Cocklebur [3] = test: Post-emergence herbicidal activity, greenhouse
Outline: as §1

Sorghum = test: Post-emergence herbicidal activity, greenhouse; settings: Table II
Outline: as §1

Smartweed [4] = test: Post-emergence herbicidal activity, greenhouse
Outline: as §1

Johnsongrass [5] = test: Post-emergence herbicidal activity, greenhouse; settings: Table I, 4 WAT
Outline: as §1

Soybean = test: Post-emergence herbicidal activity, greenhouse; settings: Table II
Outline: as §1

Rice = test: Post-emergence herbicidal activity, greenhouse; settings: Table II
Outline: as §1

Wheat = test: Post-emergence herbicidal activity, greenhouse; settings: Table II
Outline: as §1

Panicum Spp = test: Post-emergence herbicidal activity, greenhouse; settings: Table II
Outline: as §1

Lambsquarters [6] = test: Post-emergence herbicidal activity, greenhouse
Outline: as §1

Crabgrass = test: Post-emergence herbicidal activity, greenhouse; settings: Table II
Outline: as §1

Sugar Beet = test: Post-emergence herbicidal activity, greenhouse; settings: Table II
Outline: as §1

Canada Thistle [7] = test: Post-emergence herbicidal activity, greenhouse; settings: Table I, 4 WAT
Outline: as §1

Morningglory [8] = test: Post-emergence herbicidal activity, greenhouse
Outline: as §1

Downy Brome [9] = test: Post-emergence herbicidal activity, greenhouse
Outline: as §1

Yellow Nutsedge [10] = test: Post-emergence herbicidal activity, greenhouse; settings: Table I, 4 WAT
Outline: as §1

Quackgrass [11] = test: Post-emergence herbicidal activity, greenhouse; settings: Table I, 4 WAT
Outline: as §1

Barnyardgrass [12] = test: Pre-emergent herbicidal activity; settings: Table III; 11.2 kg/h; 2 WAT
Outline: (§2)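 Read-out is the count of emerged plants per species after roughly two weeks, compared with untreated pans and expressed as an index of average percent control. Compound was mixed into the soil covering the seeds or propagules, with watering from below.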

Velvetleaf [13] = test: Pre-emergent herbicidal activity; settings: Table III; 11.2 kg/h; 2 WAT
Outline: as §2

Cocklebur [14] = test: Pre-emergent herbicidal activity; settings: Table III; 11.2 kg/h; 2 WAT
Outline: as §2

Smartweed [15] = test: Pre-emergent herbicidal activity; settings: Table III; 11.2 kg/h; 2 WAT
Outline: as §2

Johnsongrass [16] = test: Pre-emergent herbicidal activity; settings: Table III; 11.2 kg/h; 2 WAT
Outline: as §2

Lambsquarters [17] = test: Pre-emergent herbicidal activity; settings: Table III; 11.2 kg/h; 2 WAT
Outline: as §2

Canada Thistle [18] = test: Pre-emergent herbicidal activity; settings: Table III; 11.2 kg/h; 2 WAT
Outline: as §2

Morningglory [19] = test: Pre-emergent herbicidal activity; settings: Table III; 11.2 kg/h; 2 WAT
Outline: as §2

Downy Brome [20] = test: Pre-emergent herbicidal activity; settings: Table III; 11.2 kg/h; 2 WAT
Outline: as §2

Yellow Nutsedge [21] = test: Pre-emergent herbicidal activity; settings: Table III; 11.2 kg/h; 2 WAT
Outline: as §2

Quackgrass [22] = test: Pre-emergent herbicidal activity; settings: Table III; 11.2 kg/h; 2 WAT
Outline: as §2

COC(=O)CN(CP(=O)(Oc1ccccc1OC)Oc1ccccc1OC)SSc1cccc(C(F)(F)F)c1 [V]
3 (75-99% control): post-emergence herbicidal activity index (Barnyardgrass [1]; Table I, 5.6 kg/h, 4 WAT) | post-emergence herbicidal activity index (Barnyardgrass [1]; Table I, 11.2 kg/h, 4 WAT) | post-emergence herbicidal activity index (Barnyardgrass [1]; Table II, 5.6 kg/h, 4 WAT) | post-emergence herbicidal activity index (Cocklebur [3]; Table I, 11.2 kg/h, 4 WAT) | post-emergence herbicidal activity index (Cocklebur [3]; Table II, 5.6 kg/h, 4 WAT) | post-emergence herbicidal activity index (Smartweed [4]; Table II, 1.12 kg/h, 4 WAT) | post-emergence herbicidal activity index (Wheat; 5.6 kg/h, 4 WAT) | post-emergence herbicidal activity index (Lambsquarters [6]; Table I, 5.6 kg/h, 4 WAT) | post-emergence herbicidal activity index (Lambsquarters [6]; Table I, 11.2 kg/h, 4 WAT) | post-emergence herbicidal activity index (Lambsquarters [6]; Table II, 1.12 kg/h, 4 WAT) | post-emergence herbicidal activity index (Lambsquarters [6]; Table II, 5.6 kg/h, 4 WAT) | post-emergence herbicidal activity index (Crabgrass; 5.6 kg/h, 4 WAT)
0 (0- 24% control): post-emergence herbicidal activity index (Wild Buckwheat; 0.28 kg/h, 2 WAT) | post-emergence herbicidal activity index (Wild Buckwheat; 1.12 kg/h, 4 WAT) | post-emergence herbicidal activity index (Wild Buckwheat; 5.6 kg/h, 4 WAT) | post-emergence herbicidal activity index (Barnyardgrass [1]; Table II, 0.28 kg/h, 2 WAT) | post-emergence herbicidal activity index (Barnyardgrass [1]; Table II, 1.12 kg/h, 4 WAT) | post-emergence herbicidal activity index (Velvetleaf [2]; Table I, 11.2 kg/h, 4 WAT) | post-emergence herbicidal activity index (Velvetleaf [2]; Table II, 0.28 kg/h, 2 WAT) | post-emergence herbicidal activity index (Velvetleaf [2]; Table II, 1.12 kg/h, 4 WAT) | post-emergence herbicidal activity index (Hemp Sesbania; 0.28 kg/h, 2 WAT) | post-emergence herbicidal activity index (Cocklebur [3]; Table II, 0.28 kg/h, 2 WAT) | post-emergence herbicidal activity index (Sorghum; 0.28 kg/h, 2 WAT) | post-emergence herbicidal activity index (Sorghum; 1.12 kg/h, 4 WAT) | post-emergence herbicidal activity index (Sorghum; 5.6 kg/h, 4 WAT) | post-emergence herbicidal activity index (Smartweed [4]; Table II, 0.28 kg/h, 2 WAT) | post-emergence herbicidal activity index (Soybean; 0.28 kg/h, 2 WAT) | post-emergence herbicidal activity index (Soybean; 1.12 kg/h, 4 WAT) | post-emergence herbicidal activity index (Rice; 0.28 kg/h, 2 WAT) | post-emergence herbicidal activity index (Rice; 1.12 kg/h, 4 WAT) | post-emergence herbicidal activity index (Wheat; 0.28 kg/h, 2 WAT) | post-emergence herbicidal activity index (Panicum Spp; 0.28 kg/h, 2 WAT) | post-emergence herbicidal activity index (Panicum Spp; 1.12 kg/h, 4 WAT) | post-emergence herbicidal activity index (Lambsquarters [6]; Table II, 0.28 kg/h, 2 WAT) | post-emergence herbicidal activity index (Crabgrass; 0.28 kg/h, 2 WAT) | post-emergence herbicidal activity index (Sugar Beet; 0.28 kg/h, 2 WAT) | post-emergence herbicidal activity index (Canada Thistle [7]; 5.6 kg/h) | post-emergence herbicidal activity index (Morningglory [8]; Table II, 0.28 kg/h, 2 WAT) | post-emergence herbicidal activity index (Downy Brome [9]; Table II, 0.28 kg/h, 2 WAT) | post-emergence herbicidal activity index (Downy Brome [9]; Table II, 1.12 kg/h, 4 WAT) | post-emergence herbicidal activity index (Downy Brome [9]; Table II, 5.6 kg/h, 4 WAT)
0 (0-24% control): pre-emergent herbicidal activity index (Velvetleaf [13]) | pre-emergent herbicidal activity index (Cocklebur [14]) | pre-emergent herbicidal activity index (Lambsquarters [17]) | pre-emergent herbicidal activity index (Yellow Nutsedge [21])
2 (50-74% control): post-emergence herbicidal activity index (Hemp Sesbania; 1.12 kg/h, 4 WAT) | post-emergence herbicidal activity index (Cocklebur [3]; Table I, 5.6 kg/h, 4 WAT) | post-emergence herbicidal activity index (Smartweed [4]; Table I, 11.2 kg/h, 4 WAT) | post-emergence herbicidal activity index (Smartweed [4]; Table II, 5.6 kg/h, 4 WAT) | post-emergence herbicidal activity index (Johnsongrass [5]; 11.2 kg/h) | post-emergence herbicidal activity index (Crabgrass; 1.12 kg/h, 4 WAT) | post-emergence herbicidal activity index (Sugar Beet; 1.12 kg/h, 4 WAT) | post-emergence herbicidal activity index (Sugar Beet; 5.6 kg/h, 4 WAT) | post-emergence herbicidal activity index (Morningglory [8]; Table I, 11.2 kg/h, 4 WAT) | pre-emergent herbicidal activity index (Canada Thistle [18]) | pre-emergent herbicidal activity index (Downy Brome [20])
4 (100% control): post-emergence herbicidal activity index (Quackgrass [11]; 11.2 kg/h)
1 (25-49% control): post-emergence herbicidal activity index (Velvetleaf [2]; Table I, 5.6 kg/h, 4 WAT) | post-emergence herbicidal activity index (Velvetleaf [2]; Table II, 5.6 kg/h, 4 WAT) | post-emergence herbicidal activity index (Hemp Sesbania; 5.6 kg/h, 4 WAT) | post-emergence herbicidal activity index (Cocklebur [3]; Table II, 1.12 kg/h, 4 WAT) | post-emergence herbicidal activity index (Smartweed [4]; Table I, 5.6 kg/h, 4 WAT) | post-emergence herbicidal activity index (Johnsongrass [5]; 5.6 kg/h) | post-emergence herbicidal activity index (Soybean; 5.6 kg/h, 4 WAT) | post-emergence herbicidal activity index (Rice; 5.6 kg/h, 4 WAT) | post-emergence herbicidal activity index (Wheat; 1.12 kg/h, 4 WAT) | post-emergence herbicidal activity index (Panicum Spp; 5.6 kg/h, 4 WAT) | post-emergence herbicidal activity index (Canada Thistle [7]; 11.2 kg/h) | post-emergence herbicidal activity index (Morningglory [8]; Table I, 5.6 kg/h, 4 WAT) | post-emergence herbicidal activity index (Morningglory [8]; Table II, 1.12 kg/h, 4 WAT) | post-emergence herbicidal activity index (Morningglory [8]; Table II, 5.6 kg/h, 4 WAT) | post-emergence herbicidal activity index (Downy Brome [9]; Table I, 5.6 kg/h, 4 WAT) | post-emergence herbicidal activity index (Downy Brome [9]; Table I, 11.2 kg/h, 4 WAT) | post-emergence herbicidal activity index (Yellow Nutsedge [10]; 5.6 kg/h) | post-emergence herbicidal activity index (Yellow Nutsedge [10]; 11.2 kg/h) | post-emergence herbicidal activity index (Quackgrass [11]; 5.6 kg/h) | pre-emergent herbicidal activity index (Smartweed [15]) | pre-emergent herbicidal activity index (Morningglory [19]) | pre-emergent herbicidal activity index (Quackgrass [22])
3 (75-100% control): pre-emergent herbicidal activity index (Barnyardgrass [12]) | pre-emergent herbicidal activity index (Johnsongrass [16])
